A short description of data set [1]: Stability of the calcipotriene and betamethasone dipropionate composition at 40° C. (quantitative HPLC). The format is physicochemical. The protocol: (§1) In both of the above cases, stability is measured after incubation in a closed container at the recited temperature for the recited amount of time; stability is determined by any quantitative assay for the recited component, and is preferably determined by HPLC methodologies known in the art.
The amount of the recited components in Table 1 were measured by quantitiative HPLC 1-2 days after the cooling (Time zero) and at the recited times after storage at the recited temperatures.
The amount of the recited components in Table 1 were measured by quantitiative HPLC 1-2 days after the cooling (Time zero) and at the recited times after storage at the recited temperatures).

Data set [2] in a line: Stability of the calcipotriene and betamethasone dipropionate composition at 55° C. (quantitative HPLC). The format is physicochemical. As to conditions: Example 1 ointment. The protocol:
as §1

The conditions of data set [3]: reportedly; cited from earlier work.
For data set [4] the following is noted: asserted in U.S. Pat. No. 5,763,426; cited from earlier work.

For `C=C1/C(=C\C=C2/CCC[C@]3(C)[C@@H]([C@H](C)/C=C/[C@@H](O)C4CC4)CC[C@@H]23)C[C@@H](O)C[C@@H]1O` [Calcipotriene, calcipotriene], the “Assay (%) Time zero” value in data set [1] (Example 1 ointment (medium chain triglyceride), 1-2 days after cooling, HPLC) came to 95.8%; in data set [2] (time zero (Table 2)), 95.8%. Further, the “Assay (%) 1 months” value in data set [1] (Example 1 ointment, stored at 40° C. 1 month) is given as 98.0%. Besides, the “Assay (%) 2 months” value in data set [1] (Example 1 ointment, stored at 40° C. 2 months) is 97.1%. Besides, the “Assay (%) 3 months” value in data set [1] (Example 1 ointment, stored at 40° C. 3 months) is on record as 100.5%. Further, the “Assay Time zero” value in data set [1] (Example 2 ointment (polysorbate 80), time zero) amounted to 99.1%. Moreover, in data set [1] (Example 2 ointment, stored at 40° C. 1 month), the “Assay 1 months” value is given as 97.9%. Besides, in data set [1] (Example 2 ointment, stored at 40° C. 2 months), the “Assay 2 months” value came out at 97.4%. In addition, the “Assay (%) 3 days” value in data set [2] (stored at 55° C. 3 days) was found to be 96.4%. In addition, the “pH at which most stable” value in data set [3] is reported as “greater than 8”.

Turning to `C=C1/C(=C\C=C2/CCC[C@]3(C)[C@@H]([C@H](C)/C=C/[C@@H](O)C4CC4)CC[C@@H]23)C[C@@H](O)C[C@@H]1O` [calcipotriol hydrate], the “stability of crystal form” value in data set [4] is given as “surprisingly stable”.

Values taken from US20120046253A1, “STABLE PHARMACOLOGICALLY ACTIVE COMPOSITIONS INCLUDING VITAMIN D CONTAINING AND CORTICOSTEROID COMPOUNDS WITH LOW pH COMPATIBILITY” (priority 2006, published 2012).
